Results taken from the kinase profiling compilation of Christmann-Franck et al. (2016).
pKi: −log10 of the molar value.

Key:
Assay in all cases: Caliper, Mobility shift assay off-chip
FGFR1 (human) = FGFR1 (human) (UniProt P11362)
WNK1 (human) = WNK1 (human) (UniProt Q9H4A3)
TSSK1B (human) = TSSK1B (human) (UniProt Q9BXA7)
EPHB4 (human) = EPHB4 (human) (UniProt P54760)
FGFR3 (human) = FGFR3 (human) (UniProt P22607)
RPS6KA6 KD1 KD2 (human) = RPS6KA6 KD1 KD2 (human) (UniProt Q9UK32)
MAPKAPK2 (human) = MAPKAPK2 (human) (UniProt P49137)
ROCK2 (human) = ROCK2 (human) (UniProt O75116)
TYK2 JH1 JH2 (human) = TYK2 JH1 JH2 (human) (UniProt P29597)
FGFR4 (human) = FGFR4 (human) (UniProt P22455)
MERTK (human) = MERTK (human) (UniProt Q12866)
CDK3 (human) = CDK3 (human) (UniProt Q00526)
SLK (human) = SLK (human) (UniProt Q9H2G2)
FLT4 (human) = FLT4 (human) (UniProt P35916)
NTRK1 (human) = NTRK1 (human) (UniProt P04629)
PTK6 (human) = PTK6 (human) (UniProt Q13882)
Chain of PTK6 (human) (Q13882 whole entry, looked up): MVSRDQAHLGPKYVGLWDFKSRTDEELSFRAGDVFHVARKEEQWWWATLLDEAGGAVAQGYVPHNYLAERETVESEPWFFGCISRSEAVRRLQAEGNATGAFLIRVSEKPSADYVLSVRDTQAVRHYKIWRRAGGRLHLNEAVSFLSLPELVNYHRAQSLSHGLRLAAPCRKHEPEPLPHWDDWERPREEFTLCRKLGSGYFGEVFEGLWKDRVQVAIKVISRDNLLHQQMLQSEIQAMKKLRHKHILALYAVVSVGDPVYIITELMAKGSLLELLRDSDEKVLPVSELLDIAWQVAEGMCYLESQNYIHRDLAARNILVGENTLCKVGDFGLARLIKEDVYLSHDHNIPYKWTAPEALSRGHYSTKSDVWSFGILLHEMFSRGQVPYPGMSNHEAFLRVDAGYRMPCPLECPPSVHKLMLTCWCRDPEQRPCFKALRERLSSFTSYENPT

TYRO3 (human) = TYRO3 (human) (UniProt Q06418)
SGK1 (human) = SGK1 (human) (UniProt O00141)
PRKACA (human) = PRKACA (human) (UniProt P17612)
PAK2 (human) = PAK2 (human) (UniProt Q13177)
CSNK2A1 (human) = CSNK2A1 (human) (UniProt P68400)
NEK1 (human) = NEK1 (human) (UniProt Q96PY6)
NTRK3 (human) = NTRK3 (human) (UniProt Q16288)
PLK1 (human) = PLK1 (human) (UniProt P53350)
PRKCA (human) = PRKCA (human) (UniProt P17252)
CSNK1G1 (human) = CSNK1G1 (human) (UniProt Q9HCP0)
SRPK3 (human) = SRPK3 (human) (UniProt Q9UPE1)
RPS6KB2 (human) = RPS6KB2 (human) (UniProt Q9UBS0)
EPHA4 (human) = EPHA4 (human) (UniProt P54764)
Chain of EPHA4 (human) (P54764 whole entry, looked up): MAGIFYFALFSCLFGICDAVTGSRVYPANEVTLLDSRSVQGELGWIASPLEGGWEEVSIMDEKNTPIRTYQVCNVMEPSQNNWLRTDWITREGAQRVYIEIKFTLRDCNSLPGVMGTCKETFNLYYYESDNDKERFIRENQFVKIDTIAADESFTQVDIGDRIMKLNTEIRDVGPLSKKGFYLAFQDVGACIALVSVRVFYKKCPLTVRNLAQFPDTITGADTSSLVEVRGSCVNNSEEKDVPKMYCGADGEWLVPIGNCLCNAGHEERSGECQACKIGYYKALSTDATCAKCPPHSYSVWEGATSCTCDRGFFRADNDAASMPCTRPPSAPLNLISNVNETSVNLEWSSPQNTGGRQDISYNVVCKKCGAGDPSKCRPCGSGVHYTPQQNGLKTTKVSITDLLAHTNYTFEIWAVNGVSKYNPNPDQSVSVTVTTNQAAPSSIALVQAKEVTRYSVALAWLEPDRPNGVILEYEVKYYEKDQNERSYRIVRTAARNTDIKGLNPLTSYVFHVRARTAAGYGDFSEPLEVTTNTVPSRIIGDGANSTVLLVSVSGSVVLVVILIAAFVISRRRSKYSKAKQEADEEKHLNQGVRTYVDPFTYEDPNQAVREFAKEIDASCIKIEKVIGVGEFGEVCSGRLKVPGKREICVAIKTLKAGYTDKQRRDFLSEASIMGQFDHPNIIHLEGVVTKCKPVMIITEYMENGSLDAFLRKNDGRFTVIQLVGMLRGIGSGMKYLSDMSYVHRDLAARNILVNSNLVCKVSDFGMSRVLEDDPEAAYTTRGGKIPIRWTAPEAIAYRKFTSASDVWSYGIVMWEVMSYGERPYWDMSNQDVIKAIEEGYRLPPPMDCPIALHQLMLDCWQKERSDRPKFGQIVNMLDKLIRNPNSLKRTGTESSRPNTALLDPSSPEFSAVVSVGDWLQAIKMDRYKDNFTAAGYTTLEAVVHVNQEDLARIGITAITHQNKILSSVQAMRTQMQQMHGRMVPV

NEK9 (human) = NEK9 (human) (UniProt Q8TD19)
Chain of NEK9 (human) (Q8TD19 whole entry, looked up): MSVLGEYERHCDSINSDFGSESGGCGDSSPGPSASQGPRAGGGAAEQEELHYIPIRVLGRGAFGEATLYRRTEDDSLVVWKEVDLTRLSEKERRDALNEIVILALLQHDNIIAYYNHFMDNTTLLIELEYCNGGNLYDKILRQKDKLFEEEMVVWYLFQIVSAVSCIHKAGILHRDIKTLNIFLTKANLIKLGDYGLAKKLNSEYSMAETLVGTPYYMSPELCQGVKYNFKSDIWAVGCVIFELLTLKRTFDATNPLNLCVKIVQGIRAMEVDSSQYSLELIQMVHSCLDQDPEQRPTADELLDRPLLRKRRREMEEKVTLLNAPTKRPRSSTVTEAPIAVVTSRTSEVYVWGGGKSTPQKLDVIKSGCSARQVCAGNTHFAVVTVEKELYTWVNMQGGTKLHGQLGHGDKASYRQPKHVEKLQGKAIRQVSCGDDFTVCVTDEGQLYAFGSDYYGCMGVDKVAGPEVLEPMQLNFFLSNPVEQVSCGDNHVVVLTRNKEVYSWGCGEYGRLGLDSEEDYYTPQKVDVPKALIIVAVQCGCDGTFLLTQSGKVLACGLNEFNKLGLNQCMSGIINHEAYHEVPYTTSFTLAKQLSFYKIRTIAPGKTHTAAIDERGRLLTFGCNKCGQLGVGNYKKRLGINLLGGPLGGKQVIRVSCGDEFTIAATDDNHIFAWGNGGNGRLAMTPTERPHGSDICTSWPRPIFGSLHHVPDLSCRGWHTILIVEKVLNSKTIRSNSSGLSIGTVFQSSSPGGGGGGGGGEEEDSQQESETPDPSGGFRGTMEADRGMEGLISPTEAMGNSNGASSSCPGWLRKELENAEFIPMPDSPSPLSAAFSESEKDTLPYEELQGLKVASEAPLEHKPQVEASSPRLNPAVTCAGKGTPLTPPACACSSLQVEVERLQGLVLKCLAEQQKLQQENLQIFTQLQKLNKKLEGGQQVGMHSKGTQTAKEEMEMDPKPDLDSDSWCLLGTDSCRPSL

SRPK2 (human) = SRPK2 (human) (UniProt P78362)
STK38 (human) = STK38 (human) (UniProt Q15208)
CDK1 (human) = CDK1 (human) (UniProt P06493)
Chain of CDK1 (human) (P06493 whole entry, looked up): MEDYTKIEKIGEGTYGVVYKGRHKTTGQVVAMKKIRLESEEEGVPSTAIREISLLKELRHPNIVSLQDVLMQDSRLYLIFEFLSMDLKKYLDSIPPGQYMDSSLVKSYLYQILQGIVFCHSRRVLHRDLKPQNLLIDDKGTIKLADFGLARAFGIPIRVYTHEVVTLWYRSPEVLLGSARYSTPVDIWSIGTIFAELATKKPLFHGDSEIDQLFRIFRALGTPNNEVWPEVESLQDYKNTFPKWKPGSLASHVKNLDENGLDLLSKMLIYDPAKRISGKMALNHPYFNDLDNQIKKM

FES (human) = FES (human) (UniProt P07332)

Chain of WNK1 (human) (Q9H4A3 whole entry, looked up): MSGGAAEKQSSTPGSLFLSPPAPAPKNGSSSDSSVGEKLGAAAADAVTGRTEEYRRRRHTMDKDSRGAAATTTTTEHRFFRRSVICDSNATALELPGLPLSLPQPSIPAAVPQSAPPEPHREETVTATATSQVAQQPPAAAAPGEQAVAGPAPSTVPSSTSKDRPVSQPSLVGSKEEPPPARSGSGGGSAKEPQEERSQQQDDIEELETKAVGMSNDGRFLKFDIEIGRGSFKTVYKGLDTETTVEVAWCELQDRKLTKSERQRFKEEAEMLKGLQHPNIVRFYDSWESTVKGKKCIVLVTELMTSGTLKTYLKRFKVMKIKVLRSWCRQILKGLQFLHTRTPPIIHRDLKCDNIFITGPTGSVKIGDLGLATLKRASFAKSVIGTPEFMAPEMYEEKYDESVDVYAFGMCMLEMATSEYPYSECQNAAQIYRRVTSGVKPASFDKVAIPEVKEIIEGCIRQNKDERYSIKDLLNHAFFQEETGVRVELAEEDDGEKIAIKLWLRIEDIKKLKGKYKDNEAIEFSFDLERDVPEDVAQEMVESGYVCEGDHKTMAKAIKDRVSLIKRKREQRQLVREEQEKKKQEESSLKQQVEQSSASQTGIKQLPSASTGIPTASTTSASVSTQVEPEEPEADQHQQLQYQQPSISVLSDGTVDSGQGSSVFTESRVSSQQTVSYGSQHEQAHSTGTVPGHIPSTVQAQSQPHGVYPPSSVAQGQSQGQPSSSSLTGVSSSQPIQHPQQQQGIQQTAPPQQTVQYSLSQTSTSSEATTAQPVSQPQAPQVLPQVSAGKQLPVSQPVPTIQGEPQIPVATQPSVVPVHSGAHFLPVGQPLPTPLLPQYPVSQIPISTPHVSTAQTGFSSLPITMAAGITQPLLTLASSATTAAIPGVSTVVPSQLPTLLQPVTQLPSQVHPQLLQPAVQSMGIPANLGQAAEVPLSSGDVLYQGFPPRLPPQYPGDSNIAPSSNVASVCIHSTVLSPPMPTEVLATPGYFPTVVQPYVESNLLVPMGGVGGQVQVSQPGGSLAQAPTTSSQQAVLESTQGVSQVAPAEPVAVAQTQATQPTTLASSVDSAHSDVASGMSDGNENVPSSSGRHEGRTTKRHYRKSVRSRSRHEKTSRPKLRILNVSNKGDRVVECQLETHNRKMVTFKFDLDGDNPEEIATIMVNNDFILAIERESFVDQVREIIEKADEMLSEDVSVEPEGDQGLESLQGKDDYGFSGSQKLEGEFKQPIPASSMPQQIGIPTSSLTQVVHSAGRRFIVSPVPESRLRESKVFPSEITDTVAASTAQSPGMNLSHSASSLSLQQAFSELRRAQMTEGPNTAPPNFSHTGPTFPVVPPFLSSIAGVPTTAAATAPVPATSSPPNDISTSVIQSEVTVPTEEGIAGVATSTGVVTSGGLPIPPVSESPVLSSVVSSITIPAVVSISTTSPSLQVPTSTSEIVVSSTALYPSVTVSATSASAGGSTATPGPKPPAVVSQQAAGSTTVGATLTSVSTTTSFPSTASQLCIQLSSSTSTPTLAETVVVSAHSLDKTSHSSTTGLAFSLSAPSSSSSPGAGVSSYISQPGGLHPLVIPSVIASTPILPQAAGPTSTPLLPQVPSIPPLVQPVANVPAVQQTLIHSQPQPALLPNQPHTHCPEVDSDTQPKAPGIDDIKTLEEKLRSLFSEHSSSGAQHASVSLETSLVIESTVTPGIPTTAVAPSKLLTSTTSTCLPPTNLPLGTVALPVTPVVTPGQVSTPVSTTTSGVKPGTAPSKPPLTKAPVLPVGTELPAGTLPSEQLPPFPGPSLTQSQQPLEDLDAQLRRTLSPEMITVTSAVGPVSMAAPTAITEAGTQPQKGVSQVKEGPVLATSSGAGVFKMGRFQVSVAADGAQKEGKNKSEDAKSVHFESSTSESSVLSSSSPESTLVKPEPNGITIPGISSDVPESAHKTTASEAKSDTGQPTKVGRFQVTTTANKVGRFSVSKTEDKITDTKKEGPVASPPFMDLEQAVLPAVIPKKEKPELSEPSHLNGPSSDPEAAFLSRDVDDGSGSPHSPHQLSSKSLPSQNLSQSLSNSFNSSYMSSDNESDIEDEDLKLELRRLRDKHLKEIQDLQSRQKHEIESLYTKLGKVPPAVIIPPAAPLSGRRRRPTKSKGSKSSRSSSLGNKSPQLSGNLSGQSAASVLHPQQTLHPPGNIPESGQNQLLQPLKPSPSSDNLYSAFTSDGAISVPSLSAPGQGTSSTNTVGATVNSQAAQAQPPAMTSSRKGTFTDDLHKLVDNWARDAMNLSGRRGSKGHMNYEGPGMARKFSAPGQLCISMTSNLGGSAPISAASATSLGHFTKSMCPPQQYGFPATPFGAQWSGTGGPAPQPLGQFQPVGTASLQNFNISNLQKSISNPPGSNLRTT

COc1cc2c(Oc3ccc4[nH]c(C)cc4c3F)ncnc2cc1OCCCN1CCCC1
inhibition (FGFR1 (human); compound 0.02 µM): 52.9% | inhibition (FGFR1 (human); compound 0.2 µM): 91.2% | inhibition (WNK1 (human); compound 0.02 µM): 4.8% | inhibition (WNK1 (human); compound 0.2 µM): 2.6% | inhibition (TSSK1B (human); compound 0.02 µM): -3.6% | inhibition (TSSK1B (human); compound 0.2 µM): -3.6% | inhibition (EPHB4 (human); compound 0.02 µM): -0.5% | inhibition (EPHB4 (human); compound 0.2 µM): 23.3% | inhibition (FGFR3 (human); compound 0.02 µM): 72.3% | inhibition (FGFR3 (human); compound 0.2 µM): 96.5% | inhibition (RPS6KA6 KD1 KD2 (human); compound 0.02 µM): 15% | inhibition (RPS6KA6 KD1 KD2 (human); compound 0.2 µM): -2.3% | inhibition (MAPKAPK2 (human); compound 0.02 µM): 6.1% | inhibition (MAPKAPK2 (human); compound 0.2 µM): -1.5% | inhibition (ROCK2 (human); compound 0.02 µM): -2.2% | inhibition (ROCK2 (human); compound 0.2 µM): -4.8% | inhibition (TYK2 JH1 JH2 (human); compound 0.02 µM): 4.8% | inhibition (TYK2 JH1 JH2 (human); compound 0.2 µM): 2.2% | inhibition (FGFR4 (human); compound 0.02 µM): 3.2% | inhibition (FGFR4 (human); compound 0.2 µM): 22.3% | inhibition (MERTK (human); compound 0.02 µM): 3.6% | inhibition (MERTK (human); compound 0.2 µM): 5.9% | inhibition (CDK3 (human); compound 0.02 µM): -3.3% | inhibition (CDK3 (human); compound 0.2 µM): -1.1% | inhibition (SLK (human); compound 0.02 µM): 37.5% | inhibition (SLK (human); compound 0.2 µM): 85% | inhibition (FLT4 (human); compound 0.02 µM): 73.8% | inhibition (FLT4 (human); compound 0.2 µM): 97% | inhibition (NTRK1 (human); compound 0.02 µM): 3.4% | inhibition (NTRK1 (human); compound 0.2 µM): 3.9% | pKi (PTK6 (human)): 7.93 | inhibition (PTK6 (human); compound 0.02 µM): 44.1% | inhibition (PTK6 (human); compound 0.2 µM): 92.1% | inhibition (TYRO3 (human); compound 0.02 µM): 7.9% | inhibition (TYRO3 (human); compound 0.2 µM): 40.5% | inhibition (SGK1 (human); compound 0.02 µM): 5.2% | inhibition (SGK1 (human); compound 0.2 µM): 0.4% | inhibition (PRKACA (human); compound 0.02 µM): -2.9% | inhibition (PRKACA (human); compound 0.2 µM): -4.8% | inhibition (PAK2 (human); compound 0.02 µM): -4.1% | inhibition (PAK2 (human); compound 0.2 µM): 3.5% | inhibition (CSNK2A1 (human); compound 0.02 µM): -0.1% | inhibition (CSNK2A1 (human); compound 0.2 µM): -0.5% | inhibition (NEK1 (human); compound 0.02 µM): -5% | inhibition (NEK1 (human); compound 0.2 µM): -4.5% | inhibition (NTRK3 (human); compound 0.02 µM): 1.6% | inhibition (NTRK3 (human); compound 0.2 µM): 1.8% | inhibition (PLK1 (human); compound 0.02 µM): -0.1% | inhibition (PLK1 (human); compound 0.2 µM): -2% | inhibition (PRKCA (human); compound 0.02 µM): 10.1% | inhibition (PRKCA (human); compound 0.2 µM): 0.3% | inhibition (CSNK1G1 (human); compound 0.02 µM): -2% | inhibition (CSNK1G1 (human); compound 0.2 µM): -0.6% | inhibition (SRPK3 (human); compound 0.02 µM): -3.4% | inhibition (SRPK3 (human); compound 0.2 µM): 0.3% | inhibition (RPS6KB2 (human); compound 0.02 µM): 1% | inhibition (RPS6KB2 (human); compound 0.2 µM): 0.6% | inhibition (EPHA4 (human); compound 0.02 µM): -4.1% | inhibition (EPHA4 (human); compound 0.2 µM): -2.4% | inhibition (NEK9 (human); compound 0.02 µM): -3.3% | inhibition (NEK9 (human); compound 0.2 µM): -2.9% | inhibition (SRPK2 (human); compound 0.02 µM): -7.9% | inhibition (SRPK2 (human); compound 0.2 µM): -5.3% | inhibition (STK38 (human); compound 0.02 µM): 9.6% | inhibition (STK38 (human); compound 0.2 µM): -1.9% | inhibition (CDK1 (human); compound 0.02 µM): -0.7% | inhibition (CDK1 (human); compound 0.2 µM): -3.2% | inhibition (FES (human); compound 0.02 µM): 6.9% | inhibition (FES (human); compound 0.2 µM): 7.8%
